In PMC7926675, “Rainbow Trout (Oncorhynchus mykiss) Na^+/H^+ Exchangers tNhe3a and tNhe3b Display Unique Inhibitory Profiles Dissimilar from Mammalian NHE Isoforms” (International Journal of Molecular Sciences, 2021):
pIC50: −log10 of the molar value.

Key:
[1] = target: T1, tNhe3a (trout Na+/H+ exchanger Nhe3a) (Oncorhynchus mykiss, UniProt A4GWV2); assay: two-pulse ammonium chloride acid-load pHi recovery assay (BCECF) in stably transfected AP-1 cells, background subtracted; type: cell-based
T1 construct: gene NHE3; GFP-tagged tNhe3a (cDNA identical to NM_001130995) stably expressed in NHE-deficient AP-1 cells
T1 sequence (A4GWV2 1-752): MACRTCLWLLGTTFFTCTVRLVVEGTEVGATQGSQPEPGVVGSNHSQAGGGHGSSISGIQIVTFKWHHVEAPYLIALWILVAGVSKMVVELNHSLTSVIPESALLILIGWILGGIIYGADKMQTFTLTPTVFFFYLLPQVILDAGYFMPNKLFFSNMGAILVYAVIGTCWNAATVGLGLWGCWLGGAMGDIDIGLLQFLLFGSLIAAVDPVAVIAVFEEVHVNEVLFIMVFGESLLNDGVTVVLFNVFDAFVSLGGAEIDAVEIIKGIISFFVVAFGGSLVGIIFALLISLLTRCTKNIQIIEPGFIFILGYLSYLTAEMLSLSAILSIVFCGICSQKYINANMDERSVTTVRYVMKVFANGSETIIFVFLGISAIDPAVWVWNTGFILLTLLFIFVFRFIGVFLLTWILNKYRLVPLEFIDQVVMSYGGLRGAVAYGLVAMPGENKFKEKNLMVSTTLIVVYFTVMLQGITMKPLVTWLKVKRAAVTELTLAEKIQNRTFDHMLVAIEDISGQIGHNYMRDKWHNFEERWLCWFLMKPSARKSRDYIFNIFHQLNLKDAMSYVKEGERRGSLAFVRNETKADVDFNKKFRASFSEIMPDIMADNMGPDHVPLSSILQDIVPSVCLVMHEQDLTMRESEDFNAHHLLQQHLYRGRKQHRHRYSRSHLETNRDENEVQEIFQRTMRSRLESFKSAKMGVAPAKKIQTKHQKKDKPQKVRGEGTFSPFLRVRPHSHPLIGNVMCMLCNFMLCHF

[2] = target: T2, tNhe3b (trout Na+/H+ exchanger Nhe3b) (Oncorhynchus mykiss, UniProt B6VDZ5); assay: two-pulse ammonium chloride acid-load pHi recovery assay (BCECF) in stably transfected AP-1 cells; significant only at […]; type: cell-based
T2 construct: GFP-tagged tNhe3b (cDNA identical to FJ376630.1) stably expressed in NHE-deficient AP-1 cells
T2 sequence (B6VDZ5 1-842): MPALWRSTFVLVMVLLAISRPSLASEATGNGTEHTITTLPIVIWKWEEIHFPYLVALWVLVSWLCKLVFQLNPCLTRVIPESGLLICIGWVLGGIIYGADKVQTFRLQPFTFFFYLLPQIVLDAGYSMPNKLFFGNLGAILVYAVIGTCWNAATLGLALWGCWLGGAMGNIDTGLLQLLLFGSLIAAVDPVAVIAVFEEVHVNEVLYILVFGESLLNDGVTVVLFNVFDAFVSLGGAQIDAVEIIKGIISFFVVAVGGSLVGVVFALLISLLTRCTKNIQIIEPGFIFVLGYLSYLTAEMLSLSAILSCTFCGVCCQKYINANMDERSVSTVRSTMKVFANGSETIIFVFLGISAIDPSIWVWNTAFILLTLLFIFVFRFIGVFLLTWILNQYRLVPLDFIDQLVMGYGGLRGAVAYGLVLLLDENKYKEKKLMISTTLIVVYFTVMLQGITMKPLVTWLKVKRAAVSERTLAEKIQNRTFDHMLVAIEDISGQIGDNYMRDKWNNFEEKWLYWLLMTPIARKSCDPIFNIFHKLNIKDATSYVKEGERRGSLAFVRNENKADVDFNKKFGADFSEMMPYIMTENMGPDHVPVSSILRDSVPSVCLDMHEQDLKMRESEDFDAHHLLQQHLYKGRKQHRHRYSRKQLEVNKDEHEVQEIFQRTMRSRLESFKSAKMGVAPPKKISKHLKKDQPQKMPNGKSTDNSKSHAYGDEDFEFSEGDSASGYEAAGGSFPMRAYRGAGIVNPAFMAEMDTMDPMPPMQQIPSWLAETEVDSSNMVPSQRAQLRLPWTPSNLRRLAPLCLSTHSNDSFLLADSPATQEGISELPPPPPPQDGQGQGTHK

| Compound | pIC50 [1] | pIC50 [2] |
| --- | --- | --- |
| CCN(c1nc(N)c(C(=O)NC(=N)N)nc1Cl)C(C)C [EIPA] | ~4.36 | – |
| N=C(N)NC(=O)c1nc(Cl)c(N)nc1N [amiloride, N-amidino-3,5-diamino-6-chloropyrazinecarboxamide] | ~5.03 | ~3.47 |
